Reference: patent publication US20230331663A1, “SMALL MOLECULE NICOTINAMIDE ADENINE DINUCLEOTIDE MODULATORS” (THE CLEVELAND CLINIC FOUNDATION, priority 2020, published 2023)
“Also recorded” adds a separate entry of the source.

Legend:
[1] = tested on: Human bone marrow cells from healthy volunteers; assay: Human HSPC self renewal, methyl cellulose colony re-plating; format: cell-based; details: colonies counted after eight days and re-plated until control HSPCs exhausted
Experimental: The human bone marrow cells from healthy volunteers were grown in methyl cellulose in the presence and absence of the compound 1-17 and colony number were counted after eight days in culture and re-plated till control HSPCs were completely exhausted. A. The number of colony and B. the total cellular output.
Human bone marrow cells from healthy volunteers were grown in methyl cellulose in the presence and absence of the compound 1-17 and colony number were counted after eight days in culture and re-plated till control HSPCs were completely exhausted.

[2] = tested on: undifferentiated normal human fibroblast (NHFB); assay: Cell proliferation assay, fibroblast life span; format: cell-based
Experimental: FIGS. 4A and 4B provide graphs showing NAD protection by compound 1-17 extend life span of undifferentiated normal human fibroblast (NHFB) under in-vitro cell culture conditions. NHFB were either A. young (<8 doubling time) or B. old (>10 doublings) cell cultures were treated with indicated amount of 1-17 in complete growth media.
NHFB were either young (<8 doubling time) (FIG. 4A) or old (>10 doublings) (FIG. 4B). Cell cultures were treated with the indicated amount of 1-17 in complete growth media.

[3] = tested on: Total Human bone marrow, isolated CD34+ HSPCs, LTC-IC; assay: Stem cell function, total cellular output in culture; format: cell-based
Experimental: Total Human bone marrow A, isolated CD34+ HSPCs B, and long-term culture initiating hematopoietic cells (LTC-IC) C, were grown in the presence and absence of the compound 1-17 and the total cellular output was determined. Compound 1-17 is synergistic with NAD treatment.
Total Human bone marrow, isolated CD34+ HSPCs, and long-term culture initiating hematopoietic cells (LTC-lC), were grown in the presence and absence of compound 1-17 and the total cellular output was determined.

[4] = tested on: murine bone marrow cells from C57bl6 mice; assay: Mouse HSPC self renewal, methyl cellulose colony re-plating; format: cell-based
Experimental: FIGS. 5A and 5B provide graphs showing Treatment of 1-17 to murine bone marrow expands the colony forming hematopoietic stem cells. The murine bone marrow cells from C57BL6 mice were grown in methyl cellulose in the presence and absence of the compound 1-17 and colony number were counted every week and re-plated. A. The number of colony and B. the total cellular output.
The murine bone marrow cells from C57bl6 mice were grown in methyl cellulose in the presence and absence of compound 1-17. Colony numbers were counted every week and re-plated.
FIG. 5 provides graphs showing that treatment with compound 1-17 increases mouse HSPC self-renewal. […] Additionally, as shown in FIG. 5B directed to total cellular output, cells also proliferate far longer than the vehicle control, maintaining population for an average of 1 to 2 passes after control.

[5] = biological target: T1, recombinant human CD38 full length protein (Homo sapiens, UniProt P28907); assay: β-NAD+ degradation assay (HPLC, C18); format: biochemical; details: purified full length wild type recombinant CD38 incubated with NAD+
T1 construct: The recombinant human CD38 full length protein UniProtKB - P28907 (CD38_HUMAN); His-tag (inferred from the pET28a vector and IMAC purification); made in house
T1 sequence (P28907 1-300): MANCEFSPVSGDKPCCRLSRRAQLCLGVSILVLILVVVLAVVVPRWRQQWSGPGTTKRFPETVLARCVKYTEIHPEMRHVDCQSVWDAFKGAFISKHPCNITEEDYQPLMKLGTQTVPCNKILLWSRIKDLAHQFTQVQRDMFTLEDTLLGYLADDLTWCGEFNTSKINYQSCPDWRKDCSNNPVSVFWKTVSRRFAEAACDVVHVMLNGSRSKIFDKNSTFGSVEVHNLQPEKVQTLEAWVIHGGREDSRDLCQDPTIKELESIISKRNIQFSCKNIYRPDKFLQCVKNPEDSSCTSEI
Experimental: FIGS. 3A-3D provides graphs showing Compound 1-17 inhibits CD38 and protects NAD degradation in vitro. Full length wild type recombinant CD38 was expressed and purified and incubated with NAD and high-performance liquid chromatographic assay using C18 were used to quantify NAD degradation. A. chromatogram with vehicle, B. CD38 incubation for 4 hours at room temperature C.
The recombinant human CD38 full length protein UniProtKB - P28907 (CD38_HUMAN) was cloned into pET28a and purified using IMAC column followed by gel filtration on SephacrylS200. The purified protein (10 µg/ml) was incubated with varying amount of NAD+ in assay buffer ([…], 5 mM MgCl2 at pH 7.0) at 25° C. for 3 hours, reaction was stopped by heat inactivation followed by acetone precipitation of protein the supernatant was vacuum dried and dissolved in water and loaded onto reverse phase C18 column and eluted with a gradient of 0-25% of acetonitrile in water.
Full length wild type recombinant CD38 was expressed and purified and incubated with NAD+ and high-performance liquid chromatographic assay using C18 were used to quantify NAD+ degradation.

[6] = tested on: healthy murine bone marrow; assay: Treatment of healthy mice, hematopoiesis; format: in vivo; details: 40 mg/kg
Experimental: The effects of CD38 inhibitor 1-17 and its analogues on hematopoiesis of healthy murine bone marrow were tested. […] Experiments were conducted to determine whether treatment with compound 1-17 has impact on blood counts and NAD+ levels in cells. The inventors treated 9 mice which were sacrificed at 2, 5 and 12 week and blood counts, marrow morphology and cellularity and bone marrow colony formation per 10^6 cell were determined in colony forming assays.

Row | Compound | colony forming hematopoietic stem and progenitor cells (HSPCs) [1] | doubling time ([2]; NHFB treated with indicated amount of compound) | life span of NHFB in culture ([2]; young (<8 doubling time) or old (>10 doublings) NHFB, complete growth media) | combination with NAD treatment ([3]; cell culture, total cellular output) | long term hematopoietic stem cells, total cellular output ([3]; total human bone marrow, CD34+ HSPCs, LTC-IC in culture) | self-renewal of HSPCs in colony numbers and overall cell counts ([4]; mouse bone marrow in methyl cellulose, counted every week and re-plated) | passes for which population is maintained after control ([4]; total cellular output, versus vehicle control) [passes] | inhibition of CD38 NAD+ degradation [5] | efficacy and tolerability of treatment dose [6]
1 | O=C(Nc1cccc2cc(C(F)(F)F)ccc12)c1cc(CCCF)ccc1O [Compound 1-11] | expands the colony forming hematopoietic stem and progenitor cells (HSPCs) | – | – | – | – | – | – | – | –
2 | Cl.NCCc1ccc(O)c(C(=O)Nc2cccc3ccccc23)c1 [Compound 1-17, 5-(2-Aminoethyl)-2-hydroxy-N-(naphthalen-1-yl)benzamide] | expands the colony forming hematopoietic stem and progenitor cells (HSPCs) | significantly increased in a dose dependent fashion | extends the life span | synergies with NAD treatment | expands long term hematopoietic stem cells in cell culture | markedly increased | 1 to 2 | inhibits CD38 and protects NAD+ degradation in vitro; also recorded: Dose dependent inhibition of CD38 | effective and well tolerated
